# Data taken from publication PMC6792352, “Limited Chemical Structural Diversity Found to Modulate Thyroid Hormone Receptor in the Tox21 Chemical Library” (Environmental Health Perspectives, 2019).
# Structures can show the parent of a compound that is named as a salt.
# Experiment: in vitro
# Conditions: rat, gh3-tre-luc cells, AC50 (uM) modified / 1000
row,SMILES,CC50 at 24 h
1,CO[C@H]1C[C@H](O[C@H]2[C@H](C)O[C@@H](O[C@@H]3/C(C)=C/C[C@@H]4C[C@@H](C[C@]5(C=C[C@H](C)[C@@H](C6CCCCC6)O5)O4)OC(=O)[C@@H]4C=C(C)[C@@H](O)[C@H]5OC/C(=C\C=C\[C@@H]3C)[C@]54O)C[C@@H]2OC)O[C@@H](C)[C@@H]1O [Doramectin],2.94 µM
2,COC(=O)C1=C(C)NC(C)=C(C(=O)O[C@H]2CCN(Cc3ccccc3)C2)[C@H]1c1cccc([N+](=O)[O-])c1 [Barnidipine hydrochloride],16.3 µM
3,"CN(C)CCc1c[nH]c2ccccc12 [N,N-Dimethyltryptamine fumarate]",> 100 µM
4,COC1=CC(=O)O[C@@H](/C=C/c2ccc3c(c2)OCO3)C1 [Methysticin],> 90 µM
5,CC(=O)OCC1=C(C(=O)O)N2C(=O)[C@@H](NC(=O)CSc3ccncc3)[C@H]2SC1 [Cephapirin sodium],> 50 µM
6,"CC(N)CN (stereo not drawn) [1,2-Diaminopropane]",> 100 µM
7,CN1C[C@H](CNC(=O)OCc2ccccc2)C[C@@H]2c3cccc4c3c(cn4C)C[C@H]21 [Metergoline],8.07 µM
8,CCCCCC=CCC(=O)OC [Methyl 3-nonenoate],> 90 µM
9,O=C(CCN1CC1)OCC(CO)(COC(=O)CCN1CC1)COC(=O)CCN1CC1 [3-{[3-(Aziridin-1-yl)propanoyl]oxy}-2-({[3-(aziridin-1-yl)propanoyl]oxy}methyl)-2-(hydroxymethyl)propyl 3-(aziridin-1-yl)propanoate],> 90 µM
10,COc1cccc([C@@]2(O)CCCC[C@@H]2CN(C)C)c1 [Tramadol hydrochloride],> 50 µM
11,CO[C@@]1(NC(=O)[C@H](C(=O)O)c2ccc(O)cc2)C(=O)N2C(C(=O)O)=C(CSc3nnnn3C)CO[C@@H]21 [Moxalactam disodium],> 20 µM
12,O=C1C=CC(=O)N1c1ccc(Cc2ccc(N3C(=O)C=CC3=O)cc2)cc1 [Bismaleimide],6.41 µM
13,CCCCCCOC(=O)c1cccnc1 [Hexyl nicotinate],> 50 µM
14,CC(=O)[C@]1(O)Cc2c(O)c3c(c(O)c2[C@@H](O[C@H]2C[C@H](N)[C@H](O)[C@H](C)O2)C1)C(=O)c1ccccc1C3=O [Idarubicin hydrochloride],0.162 µM
15,CC(COc1ccccc1)NC(C)C(O)c1ccc(O)cc1 (stereo not drawn) [Isoxsuprine hydrochloride],> 20 µM
16,CCN(Cc1cccc(S(=O)(=O)O)c1)c1ccc(C(=C2C=CC(=[N+](CC)Cc3cccc(S(=O)(=O)O)c3)C=C2)c2ccc(O)cc2S(=O)(=O)[O-])cc1 [FD&C Green No. 3],41.3 µM
17,O=C1N=C2SCCN2C(=O)C1Cc1ccc(Cl)cc1 (stereo not drawn) [Nuclomedone],> 50 µM
18,O=C(O)CCc1ccccc1 [Hydrocinnamic acid],> 90 µM
19,CCO[Si](OCC)(OCC)c1ccccc1 [Triethoxy(phenyl)silane],> 90 µM
20,CC(C)(C)C(=O)c1ccccc1 [tert-Butyl phenyl ketone],> 90 µM
21,Cc1ccc(C(C)NC(=O)[C@@H](NC(=O)OC(C)C)C(C)C)cc1 (stereo partly drawn) [Iprovalicarb],> 90 µM
22,CCCC(=O)CC [3-Hexanone],> 90 µM
23,"O=S(=O)(O)CCCS(=O)(=O)O [Disodium propane-1,3-disulfonate]",> 50 µM

row,SMILES,CC50 at 24 h
1,"CC(C)(C)CC(C)(C)N [2,4,4-Trimethyl-2-pentanamine]",> 90 µM
2,CC(=O)c1ccccc1[N+](=O)[O-] [2-Nitroacetophenone],> 90 µM
3,Nc1ccc(S(=O)(=O)c2ccc(N)cc2)cc1 [Dapsone],> 50 µM
4,O=C(O)c1ccc(-n2nc(-c3ccccc3O)nc2-c2ccccc2O)cc1 [Deferasirox],41.8 µM
5,Cc1cccc(C)c1NC(=O)CN1CCCC1=O [Nefiracetam],> 50 µM
6,C[C@@H]1C[C@H]2[C@@H]3C[C@H](F)C4=CC(=O)C=C[C@]4(C)[C@@]3(Cl)[C@@H](O)C[C@]2(C)[C@H]1C(=O)COC(=O)C(C)(C)C [Clocortolone pivalate],> 50 µM
7,C1CCC(SSC2CCCCC2)CC1 [Dicyclohexyl disulfide],> 90 µM
8,C=CCOC(=O)COCCC(C)C [Prop-2-en-1-yl (3-methylbutoxy)acetate],> 90 µM
9,"COC1CCC=CO1 (stereo not drawn) [3,4-Dihydro-2-methoxy-2H-pyran]",> 90 µM
10,"O=c1cc(-c2ccccc2)oc2ccc3ccccc3c12 [5,6-Benzoflavone]",> 90 µM
11,CCOC1Oc2ccc(OS(C)(=O)=O)cc2C1(C)C (stereo not drawn) [Ethofumesate],> 90 µM
12,CC1=C(C=O)C(C)(C)CC=C1 [Safranal],> 100 µM
13,c1ccc2cnccc2c1 [Isoquinoline],> 90 µM
14,CCC1Nc2cc(Cl)c(S(N)(=O)=O)cc2S(=O)(=O)N1 (stereo not drawn) [Ethiazide],> 50 µM
15,CC(N/C(=N\C#N)Nc1ccncc1)C(C)(C)C (stereo not drawn) [Pinacidil monohydrate],> 50 µM
16,CCCCOC(=O)/C=C\C(=O)OCCCC [Dibutyl maleate],> 90 µM
17,"Cc1ccc(Cl)cc1Cl [2,4-Dichlorotoluene]",> 90 µM
18,"Cc1ccc(N)cc1N [2,4-Diaminotoluene]",> 90 µM
19,"CCCCN(CCCC)CCCCCCN(CCCC)CCCC [N,N,N',N'-Tetrabutyl-1,6-hexanediamine]",> 90 µM
20,COC(=O)[C@H]1[C@@H](OC(=O)c2ccccc2)C[C@@H]2CC[C@H]1N2C [(-)-Cocaine hydrochloride],> 90 µM
21,"CC(O)CO (stereo not drawn) [1,2-Propylene glycol]",> 90 µM
22,"Cc1cc(O)c(Cl)c(C)c1Cl [2,4-Dichloro-3,5-dimethylphenol]",56.9 µM
23,CCNC(=O)N1CCN(CCCC(c2ccc(F)cc2)c2ccc(F)cc2)CC1 [Amperozide hydrochloride],19.7 µM

row,SMILES,CC50 at 24 h
1,CC(=O)O[C@H]1C[C@H](O[C@H]2[C@@H](O)C[C@H](O[C@H]3[C@@H](O)C[C@H](O[C@H]4CC[C@@]5(C)[C@H](CC[C@@H]6[C@@H]5C[C@@H](O)[C@]5(C)[C@@H](C7=CC(=O)OC7)CC[C@]65O)C4)O[C@@H]3C)O[C@@H]2C)O[C@H](C)[C@H]1O[C@@H]1O[C@H](CO)[C@@H](O)[C@H](O)[C@H]1O [Lanatoside C],> 50 µM
2,COc1nc(N)nc2c1ncn2[C@@H]1O[C@H](CO)[C@@H](O)[C@@H]1O [Nelarabine],> 50 µM
3,COC(=O)CC(=O)C(C)(C)C [Methyl pivaloylacetate],> 90 µM
4,CCCCc1c(C)nc(NCC)nc1OS(=O)(=O)N(C)C [Bupirimate],> 90 µM
5,Nc1cc(-c2ccncc2)c[nH]c1=O [Amrinone],> 90 µM
6,CCCCCCCCO[C@@H]1O[C@H](CO)[C@@H](O)[C@H](O)[C@H]1O [Octyl beta-D-glucopyranoside],> 90 µM
7,CC1(C)Oc2ccc(C#N)cc2[C@@H](N2CCCC2=O)[C@@H]1O [Levcromakalim],> 50 µM
8,CCCCCCCCC=CCCCCCCCC1=NCCN1CCO [2-(8-Heptadecenyl)-2-imidazoline-1-ethanol],23.2 µM
9,C/C=C/c1ccc(O)c(OC)c1 [Isoeugenol],> 90 µM
10,O=C1OC(=O)C2CC=CCC12 (stereo not drawn) [Tetrahydrophthalic anhydride],> 90 µM
11,"O=C(O)c1cc(C(=O)O)cc(C(=O)O)c1 [1,3,5-Benzenetricarboxylic acid]",> 90 µM
12,CC1(C)S[C@@H]2[C@H](NC(=O)[C@H](N)c3ccccc3)C(=O)N2[C@H]1C(=O)OC1OC(=O)c2ccccc21 (stereo partly drawn) [Talampicillin hydrochloride],> 20 µM
13,CC(C(=O)O)c1ccc2c(c1)[nH]c1ccc(Cl)cc12 (stereo not drawn) [Carprofen],> 50 µM
14,CC(CCC(=O)O)C(=O)O (stereo not drawn) [2-Methylpentanedioic acid],> 90 µM
15,C[C@@H](NCCCc1cccc(C(F)(F)F)c1)c1cccc2ccccc12 [Cinacalcet hydrochloride],5.95 µM
16,c1ccc(CNc2ncnc3nc[nH]c23)cc1 [N-Benzyladenine],> 90 µM
17,CC/C=C/CCO [(E)-3-Hexen-1-ol],> 90 µM
18,COC(=O)CCS [3-Mercaptopropionic acid methyl ester],> 90 µM
19,CC(C)(C)NCC(O)c1ccccc1Cl (stereo not drawn) [Tulobuterol hydrochloride],> 50 µM
20,c1ccc2c(c1)CCCC2C1=NCCN1 (stereo not drawn) [Tetrahydrozoline hydrochloride],> 50 µM
21,CC/C=C\CCOC(C)OCC (stereo not drawn) [Acetaldehyde ethyl cis-3-hexenyl acetal],> 70 µM

# Same assay, conditions: rat, gh3-tre-luc cells, AC50 (uM) modified / 1000, Tox21_110001=Tox21_110442; viability, 1 nM T3 present, 24 h
row,SMILES,CC50 at 24 h
1,C[C@@H]1O[C@@H](O[C@@H]2C=C3CC[C@@H]4[C@H](CC[C@]5(C)[C@@H](c6ccc(=O)oc6)CC[C@]45O)[C@@]3(C)CC2)[C@H](O)[C@H](O)[C@H]1O [Proscillaridin],> 20 µM

# Same assay, conditions: rat, gh3-tre-luc cells, AC50 (uM) modified / 1000, Tox21_110001=Tox21_112889; viability, 1 nM T3 present, 24 h
row,SMILES,CC50 at 24 h
1,"CNC(C)Cc1ccc2c(c1)OCO2 (stereo not drawn) [1-(1,3-Benzodioxol-5-yl)-N-methylpropan-2-amine hydrochloride]",> 100 µM

# Same assay, conditions: rat, gh3-tre-luc cells, AC50 (uM) modified / 1000, Tox21_110001=Tox21_200685; viability, 1 nM T3 present, 24 h
row,SMILES,CC50 at 24 h
1,O=C(Cc1ccccc1)OCc1ccccc1 [Benzyl phenylacetate],> 90 µM

# Same assay, conditions: rat, gh3-tre-luc cells, AC50 (uM) modified / 1000, Tox21_110001=Tox21_201592; viability, 1 nM T3 present, 24 h
row,SMILES,CC50 at 24 h
1,O=C1C2(Cl)C3(Cl)C4(Cl)C(Cl)(Cl)C5(Cl)C3(Cl)C1(Cl)C5(Cl)C24Cl (stereo not drawn) [Kepone],11.6 µM

# Same assay, conditions: rat, gh3-tre-luc cells, AC50 (uM) modified / 1000, Tox21_110001=Tox21_201619; viability, 1 nM T3 present, 24 h
row,SMILES,CC50 at 24 h
1,CCNc1nc(Cl)nc(NC(C)(C)C#N)n1 [Cyanazine],> 90 µM

# Same assay, conditions: rat, gh3-tre-luc cells, AC50 (uM) modified / 1000, Tox21_110001=Tox21_300098; viability, 1 nM T3 present, 24 h
row,SMILES,CC50 at 24 h
1,O=C1C2(Cl)C3(Cl)C4(Cl)C(Cl)(Cl)C5(Cl)C3(Cl)C1(Cl)C5(Cl)C24Cl (stereo not drawn) [Kepone],10.7 µM

# Same assay, conditions: rat, gh3-tre-luc cells, AC50 (uM) modified / 1000, Tox21_110001=Tox21_301160; viability, 1 nM T3 present, 24 h
row,SMILES,CC50 at 24 h
1,CCOP(=S)(OCC)Oc1ccc(Cl)cc1Cl [Dichlofenthion],> 90 µM

# Same assay, conditions: rat, gh3-tre-luc cells, AC50 (uM) modified / 1000, Tox21_110001=Tox21_301359; viability, 1 nM T3 present, 24 h
row,SMILES,CC50 at 24 h
1,CCOC(=O)c1cn2nc(OP(=S)(OCC)OCC)cc2nc1C [Pyrazophos],> 90 µM
